Results as given in patent US20180110754A1, “CENICRIVIROC FOR THE TREATMENT OF FIBROSIS” (Tobira Therapeutics, Inc., priority 2015, published 2018).

Assays:
CCR5 = CCR5 (Homo sapiens, UniProt P51681); test: RANTES-induced CCR5 internalization / CCR5 receptor occupancy in PBMCs (flow cytometry); type: cell-based
Description: The capacity of each drug to inhibit CCR5 or CCR2 internalization was evaluated. Cell-surface expression of CCR5 and CCR2 was assessed by flow cytometry, and fluorescence values were converted into molecules of equivalent soluble fluorescence (MESF).

[1] = system: CC14-induced acute liver injury; test: CC14-induced acute liver injury in mice; type: in vivo, C57BL/6J mice; conditions: CVC 100 mg/kg oral, 36h after CC14; vehicle 5.49%±0.49
Description: Liver injury and immune cell phenotypes were analyzed. For mechanistic studies, monocyte-derived macrophage subsets and resident macrophages (Kupffer cells) were sorted by FACS from injured livers and subjected to array-based Nanostring gene expression analysis.

[2] = system: APAP-induced acute liver injury; test: Acetaminophen (APAP)-induced acute liver injury in mice; type: in vivo, C57BL/6J mice
Description: Methods: […] […] Liver injury and immune cell phenotypes were analyzed. For mechanistic studies, monocyte-derived macrophage subsets and resident macrophages (Kupffer cells) were sorted by FACS from injured livers and subjected to array-based Nanostring gene expression analysis. […] The human counterparts of both agents are currently tested in phase II trials for different indications (diabetic nephropathy or NASH, respectively).

CCR7 = CCR7 (Homo sapiens, UniProt P32248); test: Inhibition of ligand binding to CCR7
HIV-1 = test: Study 201 Phase 2a 10-day monotherapy: HIV-1 RNA and resistance; type: in vivo, human; conditions: for Median nadir change from baseline in HIV-1 RNA: 10 days
Description: Participants were required to be antiretroviral treatment-experienced, CCR5 antagonist-naive, with HIV-1 RNA levels of at least 5000 copies/mL and CD4+ cell counts of at least 250 cells/mm^3 was performed.
In Study 201, drug resistance testing was performed at Baseline, Day 7, and Day 40 (or at the “Early Termination” visit, if applicable).

[3] = system: STAM mouse model of Non-alcoholic Steatohepatitis (NASH-derived HCC); test: STAM mouse model of NASH, week 18 (anti-HCC effects); conditions: for Mice that died before sacrifice (survival analysis): weeks 6-18
Description: Group 1—Vehicle: Eighteen NASH mice were orally administered vehicle at a volume of 10 mL/kg twice daily (9:00 and 19:00) from 6 weeks of age.

CCR3 = CCR3 (Homo sapiens, UniProt P51677); test: Inhibition of ligand binding to CCR3
[4] = system: RANTES-induced Ca2+ mobilization; test: RANTES-induced Ca2+ mobilization; type: cell-based
[5] = Chronic (3- and 9-month) monkey toxicity studies; type: in vivo; conditions: 1000 mg/kg/day
[6] = CVC-high 100 mg/kg/day, week 18
[7] = CVC-high 100 mg/kg/day, week 18, listed as Cenicriviroc
[8] = CVC-low 20 mg/kg/day, week 18, listed as Cenicriviroc

CCR5, sequence (P51681 whole entry): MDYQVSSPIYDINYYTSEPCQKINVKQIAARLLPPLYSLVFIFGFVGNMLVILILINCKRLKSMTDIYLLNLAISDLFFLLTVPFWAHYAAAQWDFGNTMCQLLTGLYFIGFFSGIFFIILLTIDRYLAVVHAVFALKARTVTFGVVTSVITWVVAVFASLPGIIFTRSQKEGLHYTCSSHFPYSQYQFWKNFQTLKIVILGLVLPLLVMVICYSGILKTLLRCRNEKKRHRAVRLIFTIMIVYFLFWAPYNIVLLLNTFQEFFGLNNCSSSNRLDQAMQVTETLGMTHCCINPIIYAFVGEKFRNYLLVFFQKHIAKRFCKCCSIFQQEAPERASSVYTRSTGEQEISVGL
CCR7, sequence (P32248 25-378): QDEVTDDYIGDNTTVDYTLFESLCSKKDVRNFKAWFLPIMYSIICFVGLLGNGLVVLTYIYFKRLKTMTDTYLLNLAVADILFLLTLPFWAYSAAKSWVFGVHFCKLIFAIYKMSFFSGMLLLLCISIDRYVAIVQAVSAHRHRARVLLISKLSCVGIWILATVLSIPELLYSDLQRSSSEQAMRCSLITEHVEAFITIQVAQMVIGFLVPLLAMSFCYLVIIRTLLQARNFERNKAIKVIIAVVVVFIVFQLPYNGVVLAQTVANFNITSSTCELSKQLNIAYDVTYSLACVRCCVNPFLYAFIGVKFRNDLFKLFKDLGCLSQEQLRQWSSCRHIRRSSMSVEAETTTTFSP
CCR3, sequence (P51677 whole entry): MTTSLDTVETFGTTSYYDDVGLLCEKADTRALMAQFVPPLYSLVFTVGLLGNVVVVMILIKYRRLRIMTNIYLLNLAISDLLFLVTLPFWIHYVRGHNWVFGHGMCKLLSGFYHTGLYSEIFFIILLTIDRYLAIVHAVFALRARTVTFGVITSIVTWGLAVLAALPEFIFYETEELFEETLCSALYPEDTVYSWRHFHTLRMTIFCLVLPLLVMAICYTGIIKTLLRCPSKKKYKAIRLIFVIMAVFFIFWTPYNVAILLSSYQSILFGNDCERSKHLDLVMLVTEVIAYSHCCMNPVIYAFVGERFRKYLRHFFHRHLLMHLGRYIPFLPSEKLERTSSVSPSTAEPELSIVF

CCCCOCCOc1ccc(-c2ccc3c(c2)/C=C(/C(=O)Nc2ccc([S@@+]([O-])Cc4cncn4CCC)cc2)CCCN3CC(C)C)cc1 [CVC, (S)-8-[4-(2-Butoxyethoxy)phenyl]-1-isobutyl-N-(4-{[(1-propyl-1H-imidazol-5-yl)methyl]sulfinyl}phenyl)-1,2,3,4-tetrahydro-1-benzazocine-5-carboxamide]
receptor occupancy at […] (CCR5; CCR5, […] nM for CD4+ and 2.3 nM for CD8+ T-cells, ex vivo in humans): ≥ 90% | CCR5 receptor occupancy at saturation (CCR5; CD4+ T cells): ~91% | Effective concentration at which saturation of CCR5 was reached (CCR5; CD4+ T cells): 3.1 nM | CCR5 receptor occupancy at saturation (CCR5; CD8+ T cells): ~90% | Effective concentration at which saturation of CCR5 was reached (CCR5; CD8+ T cells): 2.3 nM | Cell-surface expression of CCR5 (CCR5; in the absence of RANTES): increased cell-surface expression of CCR5 | Ly6C+ monocyte-derived macrophages in liver (% of liver leukocytes) [1]: 0.95%±0.14 | Reduction of Ly6C+ monocyte-derived macrophages in liver ([2]; CC14 and APAP models): 83-84% | Pro-inflammatory Ly6C+ monocytes in blood ([2]; CC14 and APAP models, p<0.01): significantly reduced | Reduction in ALT ([2]; CVC 100 mg/kg oral): 75% | Reduction in necrotic area fraction ([2]; CVC 100 mg/kg oral): 61% | Ly6C+ monocyte-derived macrophages in liver (% of liver leukocytes) ([2]; CVC 100 mg/kg oral, 12h after APAP, vehicle 6.01%±0.66): 0.95%±0.11 | Necrotic area fraction ([2]; CVC 100 mg/kg oral, vehicle 27.9%±4.05): 10.9%±3.50 | Monocyte accumulation in APAP-injured livers ([2]; WT mice): significantly reducing monocyte accumulation | Protection from liver damage (ALT levels) ([2]; WT mice, p<0.05 for mNOX, p<0.01 for CVC): significant protection from liver damage | Inhibition of ligand binding to CCR7 (CCR7): did not inhibit | Median nadir change from baseline in HIV-1 RNA (HIV-1; 25 mg once daily): −0.7 log^10 copies/mL | Median nadir change from baseline in HIV-1 RNA (HIV-1; 50 mg once daily): −1.6 log^10 copies/mL | Median nadir change from baseline in HIV-1 RNA (HIV-1; 75 mg once daily): −1.8 log^10 copies/mL | Median nadir change from baseline in HIV-1 RNA (HIV-1; 150 mg once daily): −1.7 log^10 copies/mL | Drug resistance testing (Baseline, Day 7, Day 40) (HIV-1; all subjects with evaluable samples): fully susceptible | Effect on NASH-derived HCC ([3]; CVC treatment groups, week 18): not observed | Body weight [3, 6]: 20.8 ± 2.7 g | CD31-positive area [3, 6]: 3.68±1.37% | Liver weight [3, 6]: 1817 ± 446 mg | Maximum diameter of visible tumor nodules [3, 6]: 5.3±5.1 mm | Number of visible tumor nodules [3, 6]: 3.6±2.5 | Body weight [3, 7]: 20.8 ± 2.7 g | CD31-positive area [3, 7]: 3.68 ± 1.37% | Liver weight [3, 7]: 1817 ± 446 mg | Maximum diameter of visible tumor nodules [3, 7]: 5.3 ± 5.1 mm | Number of visible tumor nodules [3, 7]: 3.6 ± 2.5 | Mice with GS-positive nodules ([3]; CVC-high, week 18): seven out of seven | Mice with HCC lesions (HE staining) ([3]; CVC-high, week 18): six out of seven | Mice that died before sacrifice (survival analysis) ([3]; CVC-high): Five out of twelve | Body weight ([3]; CVC-low 20 mg/kg/day, week 18): 22.9 ± 3.5 g | CD31-positive area ([3]; CVC-low 20 mg/kg/day, week 18): 1.47±1.10% | Liver weight ([3]; CVC-low 20 mg/kg/day, week 18): 1837 ± 410 mg | Maximum diameter of visible tumor nodules ([3]; CVC-low 20 mg/kg/day, week 18): 4.8±5.4 mm | Number of visible tumor nodules ([3]; CVC-low 20 mg/kg/day, week 18): 1.5±1.9 | Body weight [3, 8]: 22.9 ± 3.5 g | CD31-positive area [3, 8]: 1.47 ± 1.10% | Liver weight [3, 8]: 1837 ± 410 mg | Maximum diameter of visible tumor nodules [3, 8]: 4.8 ± 5.4 mm | Number of visible tumor nodules [3, 8]: 1.5 ± 1.9 | Mice with GS-positive nodules ([3]; CVC-low, week 18): five out of six | Mice with HCC lesions (HE staining) ([3]; CVC-low, week 18): five out of six | Mice that died before sacrifice (survival analysis) ([3]; CVC-low): Six out of twelve | Inhibition of ligand binding to CCR3 (CCR3): only weakly inhibited | Effect on RANTES-induced Ca2+ mobilization [4]: blocked | Inflammation in clinical pathology parameters or any tissue incl. liver (microscopic evaluation) [5]: No indication of inflammation | Plasma MCP-1 levels over controls ([5]; 3- and 9-month studies): ~5 fold
